Where two headings read alike, the source gives them in different places.
Key:
[1] = mouse, in vivo
Description: (§1) As for the chimeric mice, chimeric mice produced by Hiroshima Prefectural Institute of Industrial Science and Technology or PhoenixBio Co., Ltd. were used. To be more specific, mice in which human hepatocytes were engrafted and proliferated in the mouse liver were produced by transplanting human hepatocytes (IVT079, purchased from In Vitro Technology Inc., or BD51, purchased from BD Gentest Inc.) into the spleen of uPA(+/+)/SCID mice, which are mice having hepatic impairment and immunodeficiency. Mice in which 70% or more of the mouse liver had been replaced with human hepatocytes (high-replacement chimeric mice) and low-replacement chimeric mice in which although human hepatocytes had been transplanted, the replacement ratio was almost 0%, or untransplanted mice (mice with no replacement) were used (3 mice in each group). Further, as a control, 3 uPA(−/−)/SCID mice were used.
(§2) The concentration for administration of tolbutamide which is a standard drug for CYP2C9 was […]., and 4.175 mg of tolbutamide was weighed out and suspended in 1 ml of a CMC liquid in an agate mortar, and a 4.175 mg/ml suspension which is 5 times as high as the concentration for administration was prepared.
(§3) To the high-replacement chimeric mice, low-replacement chimeric mice (or mice with no replacement) and uPA(−/−)/SCID mice (3 mice in each group), 5 compounds were simultaneously administered orally by gavage or intravenously. The blood was collected from the tail vein of each mouse in an amount of 15 μl each at 0.25 (only intravenous administration), 0.5, 1, 2, 4 (only oral administration) and 8 hours after administration. Then, the blood was centrifuged at 3,500 rpm for 5 minutes, and the serum (supernatant) was collected and stored in a freezer at −30° C.
(§4) The serum samples were transported to Sumika Chemical Analysis Service, Ltd. while keeping it in dry ice, and subjected to measurement by LC-MS/MS according to the following procedure.
(§5) With regard to a liquid chromatograph, SIL-HTC and LC-10A series (Shimadzu Corporation) were used, and as a column, Synergi 4μ Polar-RP 80A, 150 mm (length)×2.00 mm (inner diameter), 4 μm (Phenomenex Inc.) was used at 30° C. As a mobile phase, methanol/a 10 mmol/l ammonium acetate solution/acetic acid (700/300/2, v/v/v) was used, and a flow rate was set at 0.2 ml/min. An injection volume was set at 2 μl, a measurement time was set at 10 min, and the temperature of an autosampler was set at 4° C. As a mass spectrometer, Tandem Mass Spectrometer API 4000 (Applied Biosystems/MDS SCIEX Inc.) was used. As API interface, Turbo V (ESI probe) was used, and as Ionization mode, Positive ion detection mode was used.
To Eppendorf tubes in which 5 μl of samples to be measured (serum) were contained, 100 μl of methanol was added, and 10 μl of 1 μg/ml of I.S. standard solution was added thereto, and then, the mixtures were thoroughly mixed by an ultrasonic treatment and a vortex mixer. […]
(§6) The determined values of the drug concentration in the serum were calculated from the peak area ratio obtained by the LC-MS/MS measurement of the samples for addition calibration curve. […] From the graphs, the peak serum concentration (Cmax), half-life (t1/2), area under the curve (AUC), bioavailability and clearance were analyzed, and pharmacokinetics in human was predicted.

CYP2D6 = assay: in vivo; conditions: uPA(+/+)/SCID, mouse, po
Protocol: (§7) As for the chimeric mice, chimeric mice produced in PhoenixBio Co., Ltd. were used. To be more specific, 3 mice in which human hepatocytes were engrafted and proliferated in the mouse liver were produced by transplanting human hepatocytes (BD51, purchased from BD Gentist Inc.) into the spleen of uPA(+/+)/SCID mice, which are mice having hepatic impairment and immunodeficiency.
(§8) Paroxetine was dissolved in Milli-Q water (using a bath-type ultrasonic device) and prepared to give a final concentration of 6 mg/ml. The prepared drug was intraperitoneally administered to the mice at a dose of 5 μl/g b.w. (30 mg/kg b.w./day).
(§9) To the high-replacement chimeric mice, paroxetine was intraperitoneally administered for 3 days. Then, in the same manner as in Example 1, 5 compounds were simultaneously administered orally by gavage, the blood was collected over time, and the serum was stored.
(§10) The determination and analysis of drugs in the serum were carried out in the same manner as in Example 1.
(§11) The determined values of the drug concentration in the serum were calculated from the peak area ratio obtained by the LC-MS/MS measurement of the samples for addition calibration curve. […] From the graphs, Cmax, t1/2 and AUC were analyzed.

in vivo = conditions: mouse, in vivo
Description: as §1, §2, §3, §4, §5
To Eppendorf tubes in which 5 μl of samples to be measured (serum) were contained, 100 μl of methanol was added, and 10 μl of 1 μg/ml of I.S. standard solution was added thereto, and then, the mixtures were thoroughly mixed by an ultrasonic treatment and a vortex mixer. The resulting mixtures were centrifuged (15,000 rpm, 5 min, room temperature), and the resulting supernatants were subjected to centrifugal filtration (10,000 rpm, 2 min, room temperature) with a filter, and the resulting filtrates were used as injection samples for LC-MS/MS.
as §6

CYP2C19 = target: T1, CYP2C19 (Homo sapiens, UniProt P33261); assay: Inhibition of metabolic activity by paroxetine in high-replacement chimeric mouse (marker omeprazole); type: in vivo; conditions: paroxetine 30 mg/kg b.w./day i.p. for 3 days, donor BD51
T1 construct: human hepatocytes were engrafted and proliferated in the mouse liver; host or cells: human donor hepatocytes BD51 engrafted in the liver of uPA(+/+)/SCID mice (high-replacement chimeric mice, PhoenixBio)
T1 sequence (P33261 whole entry): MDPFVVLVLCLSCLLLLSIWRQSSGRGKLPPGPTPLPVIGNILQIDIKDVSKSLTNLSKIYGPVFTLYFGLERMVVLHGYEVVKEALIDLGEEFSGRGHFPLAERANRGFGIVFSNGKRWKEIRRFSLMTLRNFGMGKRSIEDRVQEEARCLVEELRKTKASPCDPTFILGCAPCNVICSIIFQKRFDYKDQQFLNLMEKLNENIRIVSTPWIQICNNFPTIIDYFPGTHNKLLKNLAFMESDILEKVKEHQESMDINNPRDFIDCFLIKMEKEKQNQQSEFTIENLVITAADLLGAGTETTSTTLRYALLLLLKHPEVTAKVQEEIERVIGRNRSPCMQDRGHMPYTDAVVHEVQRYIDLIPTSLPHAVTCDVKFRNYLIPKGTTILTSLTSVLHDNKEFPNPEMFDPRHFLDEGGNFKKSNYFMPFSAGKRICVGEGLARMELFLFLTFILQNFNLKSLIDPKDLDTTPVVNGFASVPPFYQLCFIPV
Protocol: as §7, §8, §9, §10, §11

CYP1A2 = CYP1A2 (Homo sapiens, UniProt P05177); assay: Inhibition of metabolic activity by paroxetine in high-replacement chimeric mouse (marker caffeine); type: in vivo; conditions: paroxetine 30 mg/kg b.w./day i.p. for 3 days, donor BD51
CYP1A2, sequence (P05177 whole entry): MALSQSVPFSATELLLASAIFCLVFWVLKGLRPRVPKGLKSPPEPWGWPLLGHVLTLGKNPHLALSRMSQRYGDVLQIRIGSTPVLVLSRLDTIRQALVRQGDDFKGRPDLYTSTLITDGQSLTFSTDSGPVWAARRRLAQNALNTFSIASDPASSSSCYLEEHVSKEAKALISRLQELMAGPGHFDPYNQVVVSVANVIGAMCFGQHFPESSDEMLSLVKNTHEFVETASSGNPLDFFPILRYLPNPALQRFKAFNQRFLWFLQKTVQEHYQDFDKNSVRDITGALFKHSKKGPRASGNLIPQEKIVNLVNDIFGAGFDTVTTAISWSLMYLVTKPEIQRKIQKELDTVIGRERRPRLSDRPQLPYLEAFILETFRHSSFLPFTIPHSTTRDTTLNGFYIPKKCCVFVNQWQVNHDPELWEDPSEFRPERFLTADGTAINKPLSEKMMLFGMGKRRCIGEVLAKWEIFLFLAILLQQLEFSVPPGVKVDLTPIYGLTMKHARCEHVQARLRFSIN
Protocol: as §7, §8, §9, §10, §11

CYP3A4 = target: T2, CYP3A4 (Homo sapiens, UniProt P08684); assay: Inhibition of metabolic activity by paroxetine in high-replacement chimeric mouse (marker erythromycin); type: in vivo; conditions: paroxetine 30 mg/kg b.w./day i.p. for 3 days, donor BD51
T2 construct: human hepatocytes were engrafted and proliferated in the mouse liver; host or cells: human donor hepatocytes BD51 engrafted in the liver of uPA(+/+)/SCID mice (high-replacement chimeric mice, PhoenixBio)
T2 sequence (P08684 whole entry): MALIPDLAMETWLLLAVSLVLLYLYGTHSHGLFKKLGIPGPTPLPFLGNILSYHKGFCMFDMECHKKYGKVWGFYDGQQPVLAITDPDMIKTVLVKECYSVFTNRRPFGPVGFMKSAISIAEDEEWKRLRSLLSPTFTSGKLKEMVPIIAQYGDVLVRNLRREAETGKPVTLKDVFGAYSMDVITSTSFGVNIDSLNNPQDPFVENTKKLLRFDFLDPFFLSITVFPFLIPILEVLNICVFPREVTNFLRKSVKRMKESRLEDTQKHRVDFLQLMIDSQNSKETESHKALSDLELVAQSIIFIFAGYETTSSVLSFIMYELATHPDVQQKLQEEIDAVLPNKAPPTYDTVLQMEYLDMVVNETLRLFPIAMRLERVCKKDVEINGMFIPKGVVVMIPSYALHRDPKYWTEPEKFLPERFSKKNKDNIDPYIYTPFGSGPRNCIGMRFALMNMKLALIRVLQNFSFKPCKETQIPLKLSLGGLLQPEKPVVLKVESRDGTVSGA
Protocol: as §7, §8, §9, §10, §11

[2] = uPA(−/−)/SCID, iv, t 1/2 Distribution phase
[3] = uPA(−/−)/SCID, iv, t 1/2 Elimination phase

CCCCNC(=O)NS(=O)(=O)c1ccc(C)cc1 [Tolbutamide, tolbutamide]
AUC in high-replacement chimeric mice compared with low-replacement chimeric mice [1]: significantly lower
AUC (CYP2D6): 115 µg·h/mL
half-life (CYP2D6; t 1/2 Distribution phase): 199 min
AUC in high-replacement chimeric mice compared with low-replacement chimeric mice (in vivo): significantly lower
AUC (in vivo; uPA(+/+)/SCID, iv): 20600 ng·h/mL
t 1/2 Distribution phase (in vivo; uPA(+/+)/SCID, iv): 0.865^#3 hr
AUC (in vivo; uPA(+/+)/SCID, iv, AUC): 16800 ng·h/mL
half-life (in vivo; uPA(+/+)/SCID, iv, t 1/2 Distribution phase): 58.9 min
half-life (in vivo; uPA(+/+)/SCID, po, t 1/2 Elimination phase): 258 min
AUC (in vivo; uPA(−/−)/SCID, iv, AUC): 11500 ng·h/mL
half-life (in vivo; [2]): 170 min
half-life (in vivo; [3]): 154 min
AUC (in vivo; uPA(−/−)/SCID, po, AUC): 95300 ng·h/mL
bioavailability (in vivo; uPA(−/−)/SCID, po): 82.9%
Cmax (in vivo; uPA(−/−)/SCID, po): 16900 ng/mL

Fc1ccc([C@@H]2CCNC[C@H]2COc2ccc3c(c2)OCO3)cc1 [paroxetine, Paroxetine]
inhibition of the metabolic activity of CYP2C19 (CYP2C19): inhibition
inhibition of the metabolic activity of CYP1A2 (CYP1A2): inhibition
inhibition of the metabolic activity of CYP3A4 (CYP3A4): inhibition

CC[C@H]1OC(=O)[C@H](C)[C@@H](O[C@H]2C[C@@](C)(OC)[C@@H](O)[C@H](C)O2)[C@H](C)[C@@H](O[C@@H]2O[C@H](C)C[C@H](N(C)C)[C@H]2O)[C@](C)(O)C[C@@H](C)C(=O)[C@H](C)[C@@H](O)[C@]1(C)O [Erythromycin, erythromycin]
AUC ([1]; uPA(+/+)/SCID): 21.3 µg·h/mL
t 1/2 Distribution phase (in vivo; uPA(+/+)/SCID, po): 2.22^#3 hr
half-life (in vivo; uPA(+/+)/SCID, po, t 1/2 Distribution phase): 263 min
AUC (in vivo; uPA(−/−)/SCID, iv, AUC): 13800 ng·h/mL
half-life (in vivo; [2]): 21 min
half-life (in vivo; [3]): 66 min
AUC (in vivo; uPA(−/−)/SCID, po, AUC): 4080 ng·h/mL
bioavailability (in vivo; uPA(−/−)/SCID, po): 2.95%
Cmax (in vivo; uPA(−/−)/SCID, po): 1000 ng/mL
